Data from PMC10829540, “Natural transaminase fusions for biocatalysis” (RSC Advances, 2024).

How the values were obtained:
TfTAm = molecular target: T1, TfTAm (Thermincola carboxydiphila, UniProt A0A0L6W1G2); test: HPLC conversion of […] to […], non-linear regression; format: biochemical; settings: apparent; amine acceptor 3-phenylpropionaldehyde (10 mM), 1.0 mM PLP, HEPES pH 7.7, 10% DMSO, 50 °C (conditions of Fig. 7E); read-out: K ^app m
T1 construct: gene Tfer_2018; truncated to N-terminal TAm domain (borders only in ESI); N-terminal His6-tag, pET-28a(+), E. coli

PpKTTAm = molecular target: T2, PpKTTAm (Pseudomonas putida, UniProt Q88J67); test: HPLC conversion of […] to […], non-linear regression to substrate inhibition equation; format: biochemical; settings: apparent, amine donor L-glutamate, 1.0 mM PLP, HEPES pH 7.7, 10% DMSO, 30 °C (conditions of Fig. 7F)
T2 construct: gene PP_2782; truncated to N-terminal TAm domain (assigned residues 1-526); N-terminal His6-tag, pET-28a(+), E. coli
T2 sequence (Q88J67 1-526): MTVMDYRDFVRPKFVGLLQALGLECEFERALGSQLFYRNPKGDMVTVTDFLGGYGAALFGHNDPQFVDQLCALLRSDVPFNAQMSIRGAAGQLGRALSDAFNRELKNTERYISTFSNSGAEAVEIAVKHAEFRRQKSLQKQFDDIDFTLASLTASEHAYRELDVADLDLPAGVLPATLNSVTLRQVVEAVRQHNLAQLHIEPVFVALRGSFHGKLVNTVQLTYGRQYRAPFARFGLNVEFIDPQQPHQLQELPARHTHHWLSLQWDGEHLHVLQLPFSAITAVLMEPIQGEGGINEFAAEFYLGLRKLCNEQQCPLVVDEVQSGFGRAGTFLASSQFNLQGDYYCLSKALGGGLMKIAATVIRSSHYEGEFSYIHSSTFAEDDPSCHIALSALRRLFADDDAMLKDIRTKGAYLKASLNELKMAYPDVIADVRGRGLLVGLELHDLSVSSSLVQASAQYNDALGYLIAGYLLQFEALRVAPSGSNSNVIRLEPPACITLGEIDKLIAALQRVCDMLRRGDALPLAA

TfFusion = molecular target: T3, TfFusion (Thermincola carboxydiphila, UniProt A0A0L6W1G2); test: as above; format: biochemical; settings: apparent, amine donor L-glutamate, 1.0 mM PLP, HEPES pH 7.7, 10% DMSO, 50 °C (conditions of Fig. 7F)
T3 construct: gene Tfer_2018; full-length fusion; N-terminal His6-tag, pET-28a(+), E. coli

PpKTFusion = molecular target: T4, PpKTFusion (Pseudomonas putida, UniProt Q88J67); test: as above; format: biochemical; settings: apparent, amine donor L-glutamate, 1.0 mM PLP, HEPES pH 7.7, 10% DMSO, 30 °C (conditions of Fig. 7F)
T4 construct: gene PP_2782; full-length fusion (N-terminal TAm 1-526, linker 527-562, C-terminal reductase 563-959); N-terminal His6-tag, pET-28a(+), E. coli
T4 sequence (Q88J67 1-959): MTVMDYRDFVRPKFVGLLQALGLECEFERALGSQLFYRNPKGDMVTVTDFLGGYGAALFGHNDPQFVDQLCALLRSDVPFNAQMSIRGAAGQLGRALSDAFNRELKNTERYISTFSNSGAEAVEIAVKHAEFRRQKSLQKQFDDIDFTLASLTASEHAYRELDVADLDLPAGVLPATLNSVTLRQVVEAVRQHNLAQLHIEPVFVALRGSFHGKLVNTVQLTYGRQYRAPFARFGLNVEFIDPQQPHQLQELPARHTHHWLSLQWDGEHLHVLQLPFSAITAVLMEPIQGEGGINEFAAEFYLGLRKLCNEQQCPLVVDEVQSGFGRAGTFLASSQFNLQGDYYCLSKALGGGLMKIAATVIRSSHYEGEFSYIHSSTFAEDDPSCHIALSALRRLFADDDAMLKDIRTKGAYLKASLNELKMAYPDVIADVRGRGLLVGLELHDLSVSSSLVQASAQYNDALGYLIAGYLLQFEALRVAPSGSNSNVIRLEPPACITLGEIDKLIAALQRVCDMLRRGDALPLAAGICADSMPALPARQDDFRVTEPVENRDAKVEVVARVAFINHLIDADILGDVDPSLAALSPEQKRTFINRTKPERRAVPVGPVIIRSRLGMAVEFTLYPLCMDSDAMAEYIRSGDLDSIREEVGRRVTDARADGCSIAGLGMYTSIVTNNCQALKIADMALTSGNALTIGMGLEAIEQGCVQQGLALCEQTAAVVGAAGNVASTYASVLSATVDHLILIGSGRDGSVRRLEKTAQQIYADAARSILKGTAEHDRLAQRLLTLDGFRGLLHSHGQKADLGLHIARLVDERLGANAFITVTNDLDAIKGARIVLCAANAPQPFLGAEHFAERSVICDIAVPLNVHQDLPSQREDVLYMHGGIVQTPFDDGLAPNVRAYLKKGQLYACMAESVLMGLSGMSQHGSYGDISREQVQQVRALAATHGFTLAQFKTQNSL

purified protein [1] = substrate: O=CCCc1ccccc1; test: purified protein; format: biochemical, Thermincola carboxydiphila; settings: apparent, amine donor L-glutamate, 1.0 mM PLP, HEPES pH 7.7, 10% DMSO, 50 °C (conditions of Fig. 7F)
purified protein [2] = substrate: N[C@@H](CCC(=O)O)C(=O)O; test: purified protein; format: biochemical, Thermincola carboxydiphila; settings: apparent, amine acceptor 3-phenylpropionaldehyde (10 mM), 1.0 mM PLP, HEPES pH 7.7, 10% DMSO, 50 °C (conditions of Fig. 7E)

Which Km (TfTAm) does the source give for `N[C@@H](CCC(=O)O)C(=O)O` [compound 36, L-glutamate] here?
Its Km is 9.57 mM.

`O=CCCc1ccccc1` [compound 13, 3-phenylpropionaldehyde] was tested. Which “K ^app i” value (PpKTTAm) did it give?
The value was 5.13 µM.

And the “K ^app i” value (TfFusion)?
Its value is 52.92 µM.

What about the “K ^app i” value (PpKTFusion) of the same molecule?
Its value is 3.37 µM.

B1: TfFusion (Thermincola carboxydiphila) (protein)
chain: MKFSSLNPTMDKLFECFKLDVAYVKGEGTYLYDQAGNKYLDFIAQYGAVPFGYNPPELVAAAKKYFDLSLPSMVQPSIPVKAVELAEMLLQLAPGEMAQATFCQSGAEAVEVAIKLARSTTGKPKILSTKNSFHGKTMGALSATGRDVYQKPFFTPVPGFEHIPFGDLDMLENKMRTEGKQIAAFLVEPIQGEGGIIVPPEGYLKNAEIICRKYGVLLAVDEIQTGLGRTGELFACDREGVEPDILLLSKALGGGLVPLGVCLSTRQAWNEEFGRLHSSTFANNNFTCAIGLAVLNKLLENGRQLINNAKSAGNYLLKNLEDINRQYPGVIKEIRGRGLMLGLEFNEFDGSESFSMKYLAEQGGFSPLLAGYLLNVHKVRVAPFLNNPMTLRLQPSLTVATVEIDRALHGLERVVKALYYQDHCELYSYIIGKEPGPIRDFRSEKKAVTGSELLPEEKPTEKFAFLIHYPSSEDVIKNNPSFKKASKDILEKLIDWEASLDAEPEVIVHLPAIKSKAGKIAEGWLIGIPYSGRHMMEMPRKDAVKVLVTALDKAKALGARIVGLGAYTSVVSRGGSDLQGKGIAVTSGNSYTIATAFDALIEGARLMGIDPAESTGCVIGATGSIGRVCAILLAEEIDKLVLVGNPEKEKTSLRRMEQLADEIYTRAFREILAYKGKVAKIKGIAKWLKGFLDRKRKDDPEVWNKLLTALENQGFSINGYIHENLAAKGKYSNPPVKITVNIKQALLQSDLIISASNSTNHLIGPGHLKPGSVICDVARPPDVSEAVLEQRKDVLVIEGGLVQYPDDICFGQNMGYEPGVNMACLSETMLLALEGTYRDFSIGLKIPVENVYYLRELAQRHGFKLATPWNKNGGVTPEVARMIKEAALKNENVEKIKTPKSS
notes: full-length fusion; N-terminal His6-tag, pET-28a(+), E. coli
Which results are given for B1?
Km (purified protein [1]): 50.61 mM; kcat (purified protein [1]): 1.171 s⁻¹; Km (purified protein [2]): 16.44 mM; kcat (purified protein [2]): 0.2672 s⁻¹
